Test results reported in PubChem BioAssay (NCI).
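Five concentrations, 48 hours, 96-well plates. TGI: concentration producing complete growth inhibition.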

How the values were obtained:
Experiment in all cases: NCI tumour cell line growth inhibition, 48 h
SF-268 CNS = system: SF-268 CNS
SNB-19 CNS = system: SNB-19 CNS
K-562 leukemia = system: K-562 leukemia
HOP-92 NSCLC = system: HOP-92 NSCLC
A549 NSCLC = system: A549 NSCLC
RXF 393 renal = system: RXF 393 renal
MDA-MB-231 breast = system: MDA-MB-231 breast
MCF7 breast = system: MCF7 breast
OVCAR-8 ovarian = system: OVCAR-8 ovarian
CAKI-1 renal = system: CAKI-1 renal
MOLT-4 leukemia = system: MOLT-4 leukemia
UO-31 renal = system: UO-31 renal
NCI-H522 lung = system: NCI-H522 lung
T-47D breast = system: T-47D breast
LOX IMVI melanoma = system: LOX IMVI melanoma
SF-295 CNS = system: SF-295 CNS
DU-145 prostate = system: DU-145 prostate
EKVX NSCLC = system: EKVX NSCLC
HOP-62 NSCLC = system: HOP-62 NSCLC
NCI-H226 lung = system: NCI-H226 lung
UACC-257 melanoma = system: UACC-257 melanoma
MALME-3M melanoma = system: MALME-3M melanoma
COLO 205 colon = system: COLO 205 colon
NCI-H23 lung = system: NCI-H23 lung
ACHN renal = system: ACHN renal
HT29 colon = system: HT29 colon
HS 578T breast = system: HS 578T breast
TK-10 renal = system: TK-10 renal
SK-MEL-2 melanoma = system: SK-MEL-2 melanoma
SK-MEL-5 melanoma = system: SK-MEL-5 melanoma
HCT-15 colon = system: HCT-15 colon
OVCAR-4 ovarian = system: OVCAR-4 ovarian
KM12 colon = system: KM12 colon
UACC-62 melanoma = system: UACC-62 melanoma
SK-OV-3 ovarian = system: SK-OV-3 ovarian
OVCAR-3 ovarian = system: OVCAR-3 ovarian
SW-620 colon = system: SW-620 colon
HL-60(TB) leukemia = system: HL-60(TB) leukemia
U251 CNS = system: U251 CNS
HCC-2998 colon = system: HCC-2998 colon
RPMI-8226 leukemia = system: RPMI-8226 leukemia
M14 melanoma = system: M14 melanoma
CCRF-CEM leukemia = system: CCRF-CEM leukemia
IGROV1 ovarian = system: IGROV1 ovarian
OVCAR-5 ovarian = system: OVCAR-5 ovarian
SR leukemia = system: SR leukemia
NCI/ADR-RES ovarian = system: NCI/ADR-RES ovarian
SNB-75 CNS = system: SNB-75 CNS
SN12C renal = system: SN12C renal
SF-539 CNS = system: SF-539 CNS
SK-MEL-28 melanoma = system: SK-MEL-28 melanoma
NCI-H460 lung = system: NCI-H460 lung
PC-3 prostate = system: PC-3 prostate
BT-549 breast = system: BT-549 breast
A498 renal = system: A498 renal
786-0 renal = system: 786-0 renal
MDA-N = system: MDA-N
MDA-MB-435 = system: MDA-MB-435
HCT-116 colon = system: HCT-116 colon

**Q.** Which TGI (SF-268 CNS) does the source give for `Fc1cccc(CSc2ncnc3c2ncn3C2CCCS2)c1` (stereo not drawn) here?
**A.** > 100 µM

**Q.** What about the TGI (SNB-19 CNS) of the same molecule?
**A.** > 100 µM

**Q.** And the TGI (K-562 leukemia)?
**A.** 84.2 µM

**Q.** What about the TGI (HOP-92 NSCLC) of the same molecule?
**A.** 67.4 µM

**Q.** What about the TGI (A549 NSCLC) of the same molecule?
**A.** > 100 µM

**Q.** What about the TGI (RXF 393 renal) of the same molecule?
**A.** 92.2 µM

**Q.** And the TGI (MDA-MB-231 breast)?
**A.** > 100 µM

**Q.** And the TGI (MCF7 breast)?
**A.** 63.7 µM

**Q.** What about the TGI (OVCAR-8 ovarian) of the same molecule?
**A.** 75.7 µM

**Q.** What about the TGI (CAKI-1 renal) of the same molecule?
**A.** > 100 µM

**Q.** And the TGI (MOLT-4 leukemia)?
**A.** 24 µM

**Q.** What about the TGI (UO-31 renal) of the same molecule?
**A.** 36.2 µM

**Q.** And the TGI (NCI-H522 lung)?
**A.** 44 µM

**Q.** What about the TGI (T-47D breast) of the same molecule?
**A.** > 100 µM

**Q.** And the TGI (LOX IMVI melanoma)?
**A.** 34.9 µM

**Q.** And the TGI (SF-295 CNS)?
**A.** 41.1 µM

**Q.** And the TGI (DU-145 prostate)?
**A.** 50.4 µM

**Q.** And the TGI (EKVX NSCLC)?
**A.** 81.2 µM

**Q.** What about the TGI (HOP-62 NSCLC) of the same molecule?
**A.** 40.3 µM

**Q.** What about the TGI (NCI-H226 lung) of the same molecule?
**A.** 61.4 µM

**Q.** What about the TGI (UACC-257 melanoma) of the same molecule?
**A.** 29.6 µM

**Q.** What about the TGI (MALME-3M melanoma) of the same molecule?
**A.** 49.3 µM

**Q.** What about the TGI (COLO 205 colon) of the same molecule?
**A.** 24.4 µM

**Q.** And the TGI (NCI-H23 lung)?
**A.** 62.1 µM

**Q.** What about the TGI (ACHN renal) of the same molecule?
**A.** 39.7 µM

**Q.** And the TGI (HT29 colon)?
**A.** 32.7 µM

**Q.** What about the TGI (HS 578T breast) of the same molecule?
**A.** > 100 µM

**Q.** And the TGI (TK-10 renal)?
**A.** > 100 µM

**Q.** What about the TGI (SK-MEL-2 melanoma) of the same molecule?
**A.** 40.3 µM

**Q.** What about the TGI (SK-MEL-5 melanoma) of the same molecule?
**A.** 22.5 µM

**Q.** And the TGI (HCT-15 colon)?
**A.** > 100 µM

**Q.** And the TGI (OVCAR-4 ovarian)?
**A.** 83.1 µM

**Q.** And the TGI (KM12 colon)?
**A.** 38.9 µM

**Q.** What about the TGI (UACC-62 melanoma) of the same molecule?
**A.** 28.8 µM

**Q.** What about the TGI (SK-OV-3 ovarian) of the same molecule?
**A.** > 100 µM

**Q.** And the TGI (OVCAR-3 ovarian)?
**A.** 35.6 µM

**Q.** And the TGI (SW-620 colon)?
**A.** > 100 µM

**Q.** What about the TGI (HL-60(TB) leukemia) of the same molecule?
**A.** 32.1 µM

**Q.** What about the TGI (U251 CNS) of the same molecule?
**A.** 42.8 µM

**Q.** What about the TGI (HCC-2998 colon) of the same molecule?
**A.** 42.2 µM

**Q.** And the TGI (RPMI-8226 leukemia)?
**A.** 52.1 µM

**Q.** And the TGI (M14 melanoma)?
**A.** 33.7 µM

**Q.** What about the TGI (CCRF-CEM leukemia) of the same molecule?
**A.** 46.6 µM

**Q.** And the TGI (IGROV1 ovarian)?
**A.** > 100 µM

**Q.** And the TGI (OVCAR-5 ovarian)?
**A.** > 100 µM

**Q.** What about the TGI (SR leukemia) of the same molecule?
**A.** 34 µM

**Q.** What about the TGI (NCI/ADR-RES ovarian) of the same molecule?
**A.** 96.7 µM

**Q.** What about the TGI (SNB-75 CNS) of the same molecule?
**A.** 65.6 µM

**Q.** And the TGI (SN12C renal)?
**A.** 82 µM

**Q.** What about the TGI (SF-539 CNS) of the same molecule?
**A.** 25.8 µM

**Q.** And the TGI (SK-MEL-28 melanoma)?
**A.** 50.8 µM

**Q.** And the TGI (NCI-H460 lung)?
**A.** 22.7 µM

**Q.** What about the TGI (PC-3 prostate) of the same molecule?
**A.** > 100 µM

**Q.** And the TGI (BT-549 breast)?
**A.** 79.5 µM

**Q.** What about the TGI (A498 renal) of the same molecule?
**A.** 41.8 µM

**Q.** And the TGI (786-0 renal)?
**A.** 51.5 µM

**Q.** What about the TGI (MDA-N) of the same molecule?
**A.** 56.8 µM

**Q.** And the TGI (MDA-MB-435)?
**A.** 38.4 µM

**Q.** What about the TGI (HCT-116 colon) of the same molecule?
**A.** 26.3 µM

**Q.** What does the source list for `CCCCCC(O)(CCCCC)CCCCCCCCC1=C(O)c2ccccc2C(=O)C1=O`?
**A.** TGI (SF-268 CNS): 33.7 µM; TGI (SNB-19 CNS): 24.9 µM; TGI (K-562 leukemia): 21.6 µM; TGI (HOP-92 NSCLC): 33.6 µM; TGI (A549 NSCLC): > 53.6 µM; TGI (RXF 393 renal): 29.9 µM; TGI (MDA-MB-231 breast): 32 µM; TGI (MCF7 breast): 23.6 µM; TGI (OVCAR-8 ovarian): 33 µM; TGI (CAKI-1 renal): > 56.1 µM; TGI (MOLT-4 leukemia): 12.4 µM; TGI (UO-31 renal): 28 µM; TGI (NCI-H522 lung): 67.9 µM; TGI (T-47D breast): 75.2 µM; TGI (LOX IMVI melanoma): 18 µM; TGI (SF-295 CNS): 40.5 µM; TGI (DU-145 prostate): 25.7 µM; TGI (EKVX NSCLC): 60.1 µM; TGI (HOP-62 NSCLC): 25.6 µM; TGI (NCI-H226 lung): 36.4 µM; TGI (UACC-257 melanoma): > 66.5 µM; TGI (MALME-3M melanoma): 28.6 µM; TGI (COLO 205 colon): 42.4 µM; TGI (NCI-H23 lung): 21.9 µM; TGI (ACHN renal): > 100 µM; TGI (HT29 colon): 27.9 µM; TGI (HS 578T breast): 54.5 µM; TGI (TK-10 renal): > 75.5 µM; TGI (SK-MEL-2 melanoma): 27.7 µM; TGI (SK-MEL-5 melanoma): 14.5 µM; TGI (HCT-15 colon): 15.6 µM; TGI (OVCAR-4 ovarian): > 48.8 µM; TGI (KM12 colon): 19.4 µM; TGI (UACC-62 melanoma): 21.1 µM; TGI (SK-OV-3 ovarian): > 64.1 µM; TGI (OVCAR-3 ovarian): 29.4 µM; TGI (SW-620 colon): 32 µM; TGI (HL-60(TB) leukemia): 14 µM; TGI (U251 CNS): 14.5 µM; TGI (HCC-2998 colon): 30.5 µM; TGI (RPMI-8226 leukemia): 11.5 µM; TGI (M14 melanoma): 24.8 µM; TGI (CCRF-CEM leukemia): > 100 µM; TGI (IGROV1 ovarian): 26.4 µM; TGI (OVCAR-5 ovarian): 46.1 µM; TGI (SR leukemia): 13.9 µM; TGI (NCI/ADR-RES ovarian): 21.8 µM; TGI (SNB-75 CNS): > 80.2 µM; TGI (SN12C renal): 23.5 µM; TGI (SF-539 CNS): 27.5 µM; TGI (SK-MEL-28 melanoma): > 46.2 µM; TGI (NCI-H460 lung): 17.7 µM; TGI (PC-3 prostate): 24.6 µM; TGI (BT-549 breast): 39.6 µM; TGI (A498 renal): 21.5 µM; TGI (786-0 renal): 30.5 µM; TGI (MDA-N): 31.3 µM; TGI (MDA-MB-435): > 62.4 µM; TGI (HCT-116 colon): 15.2 µM
